According to ChEMBL document CHEMBL1201862, “PubChem BioAssay data set” (2004):
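Exposure lasted 48 hours, with cells grown in 96-well plates and compounds tested at five concentrations. GI50: concentration for 50% inhibition of growth.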 Active and inactive are the calls of the source. Rule as the data show it: active = GI50 up to about 1.1 µM and inactive = higher.

How the values were obtained:
Assay in all cases: NCI anticancer screen, dose series, 48 h
DU-145 = test system: DU-145
KM12 = test system: KM12
MDA-MB-231 = test system: MDA-MB-231
OVCAR-5 = test system: OVCAR-5
SK-OV-3 = test system: SK-OV-3
CCRF-CEM = test system: CCRF-CEM
SNB-19 = test system: SNB-19
MCF7 = test system: MCF7
HOP-92 = test system: HOP-92
SK-MEL-5 = test system: SK-MEL-5
SF-539 = test system: SF-539
NCI/ADR-RES = test system: NCI/ADR-RES
M14 = test system: M14
CAKI-1 = test system: CAKI-1
MDA-MB-435 = test system: MDA-MB-435
BT-549 = test system: BT-549
OVCAR-8 = test system: OVCAR-8
HCT-15 = test system: HCT-15
HCC 2998 = test system: HCC 2998
SW-620 = test system: SW-620
SK-MEL-28 = test system: SK-MEL-28
UO-31 = test system: UO-31
UACC-257 = test system: UACC-257
HL-60 = test system: HL-60
K562 = test system: K562
TK-10 = test system: TK-10
U-251 = test system: U-251
RPMI-8226 = test system: RPMI-8226
Malme-3M = test system: Malme-3M
A549 = test system: A549
HOP-62 = test system: HOP-62
NCI-H23 = test system: NCI-H23
PC-3 = test system: PC-3
SNB-75 = test system: SNB-75
786-0 = test system: 786-0
RXF 393 = test system: RXF 393
IGROV-1 = test system: IGROV-1
EKVX = test system: EKVX
UACC-62 = test system: UACC-62
A498 = test system: A498
SN12C = test system: SN12C
Hs-578T = test system: Hs-578T
MOLT-4 = test system: MOLT-4
NCI-H460 = test system: NCI-H460
LOX IMVI = test system: LOX IMVI
SF-268 = test system: SF-268
T47D = test system: T47D
COLO 205 = test system: COLO 205
NCI-H226 = test system: NCI-H226
SF-295 = test system: SF-295
ACHN = test system: ACHN
MDA-N = test system: MDA-N
HT-29 = test system: HT-29
OVCAR-3 = test system: OVCAR-3
HCT-116 = test system: HCT-116
OVCAR-4 = test system: OVCAR-4
SK-MEL-2 = test system: SK-MEL-2
NCI-H522 = test system: NCI-H522

With `CC1(C)C(=O)C2(C#N)CCC1C2` (centres undefined) the GI50 (DU-145) was > 100 µM (inactive), the GI50 (KM12) was > 100 µM (inactive) and the GI50 (MDA-MB-231) was > 100 µM (inactive). The GI50 (OVCAR-5) was > 100 µM (inactive), the GI50 (SK-OV-3) was > 100 µM (inactive) and the GI50 (CCRF-CEM) was > 100 µM (inactive). The GI50 (SNB-19) was > 100 µM (inactive), the GI50 (MCF7) was > 100 µM (inactive) and the GI50 (HOP-92) was > 100 µM (inactive). For the same molecule, the GI50 (SK-MEL-5) was > 100 µM (inactive), the GI50 (SF-539) was > 100 µM (inactive) and the GI50 (NCI/ADR-RES) was > 100 µM (inactive). For the same molecule, the GI50 (M14) was > 100 µM (inactive), the GI50 (CAKI-1) was > 100 µM (inactive) and the GI50 (MDA-MB-435) was > 100 µM (inactive). For the same molecule, the GI50 (BT-549) was > 100 µM (inactive), the GI50 (OVCAR-8) was > 100 µM (inactive) and the GI50 (HCT-15) was over 100 µM. For the same molecule, the GI50 (HCC 2998) was > 100 µM (inactive), the GI50 (SW-620) was > 100 µM (inactive) and the GI50 (SK-MEL-28) was > 100 µM (inactive). For the same molecule, the GI50 (UO-31) was > 100 µM (inactive), the GI50 (UACC-257) was > 100 µM (inactive) and the GI50 (HL-60) was > 100 µM (inactive). For the same molecule, the GI50 (K562) was > 100 µM (inactive), the GI50 (TK-10) was > 100 µM (inactive) and the GI50 (U-251) was > 100 µM (inactive). The GI50 (RPMI-8226) was > 76.9 µM (inactive), the GI50 (Malme-3M) was > 100 µM (inactive) and the GI50 (A549) was > 100 µM (inactive). The GI50 (HOP-62) was > 100 µM (inactive), the GI50 (NCI-H23) was > 100 µM (inactive) and the GI50 (PC-3) was > 100 µM (inactive). The GI50 (SNB-75) was > 84.7 µM (inactive), the GI50 (786-0) was > 100 µM (inactive) and the GI50 (RXF 393) was > 100 µM (inactive). The GI50 (IGROV-1) was > 100 µM (inactive), the GI50 (EKVX) was > 100 µM (inactive) and the GI50 (UACC-62) was > 100 µM (inactive). For the same molecule, the GI50 (A498) was > 100 µM (inactive), the GI50 (SN12C) was > 100 µM (inactive) and the GI50 (Hs-578T) was > 100 µM (inactive). The GI50 (MOLT-4) was > 100 µM (inactive), the GI50 (NCI-H460) was > 100 µM (inactive) and the GI50 (LOX IMVI) was > 100 µM (inactive). The GI50 (SF-268) was > 100 µM (inactive), the GI50 (T47D) was > 100 µM (inactive) and the GI50 (COLO 205) was > 100 µM (inactive). The GI50 (NCI-H226) was > 100 µM (inactive), the GI50 (SF-295) was > 100 µM (inactive) and the GI50 (ACHN) was > 100 µM (inactive). For the same molecule, the GI50 (MDA-N) was > 100 µM (inactive), the GI50 (HT-29) was > 100 µM (inactive) and the GI50 (OVCAR-3) was > 100 µM (inactive). For the same molecule, the GI50 (HCT-116) was > 100 µM (inactive), the GI50 (OVCAR-4) was > 100 µM (inactive) and the GI50 (SK-MEL-2) was > 100 µM (inactive).
`CC(=NNC(=S)Nc1ccccc1)c1cccc(C(C)=NNC(=S)Nc2ccccc2)n1` was tested, and the GI50 (DU-145) was > 20.1 µM (inactive), the GI50 (KM12) was 3.38 µM (inactive) and the GI50 (MDA-MB-231) was 4.62 µM (inactive). The GI50 (OVCAR-5) was > 22 µM (inactive), the GI50 (SK-OV-3) was 5.98 µM (inactive) and the GI50 (CCRF-CEM) was 1.74 µM (inactive). The GI50 (SNB-19) was 19.3 µM (inactive), the GI50 (MCF7) was 3.11 µM (inactive) and the GI50 (HOP-92) was 2.25 µM (inactive). The GI50 (SK-MEL-5) was 2.64 µM (inactive), the GI50 (SF-539) was 1.47 µM (inactive) and the GI50 (NCI/ADR-RES) was 1.61 µM (inactive). The GI50 (M14) was 1.97 µM (inactive), the GI50 (CAKI-1) was 1.79 µM (inactive) and the GI50 (MDA-MB-435) was 8.32 µM (inactive). The GI50 (BT-549) was 12.2 µM (inactive), the GI50 (OVCAR-8) was 0.968 µM (active) and the GI50 (HCT-15) was 4.58 µM. The GI50 (HCC 2998) was 3.64 µM (inactive), the GI50 (SW-620) was 3.66 µM (inactive) and the GI50 (SK-MEL-28) was > 100 µM (inactive). For the same molecule, the GI50 (UO-31) was 2.34 µM (inactive), the GI50 (UACC-257) was 8.83 µM (inactive) and the GI50 (HL-60) was 0.189 µM (active). For the same molecule, the GI50 (K562) was 3.04 µM (inactive), the GI50 (TK-10) was 4.24 µM (inactive) and the GI50 (U-251) was 4.99 µM (inactive). For the same molecule, the GI50 (RPMI-8226) was 2.83 µM (inactive), the GI50 (Malme-3M) was 4.57 µM (inactive) and the GI50 (A549) was 3.94 µM (inactive). For the same molecule, the GI50 (HOP-62) was 2.11 µM (inactive), the GI50 (NCI-H23) was 7.46 µM (inactive) and the GI50 (PC-3) was 5.21 µM (inactive). The GI50 (SNB-75) was 10.8 µM (inactive), the GI50 (786-0) was 1.75 µM (inactive) and the GI50 (RXF 393) was 3.01 µM (inactive). For the same molecule, the GI50 (IGROV-1) was 2.08 µM (inactive), the GI50 (EKVX) was 6.98 µM (inactive) and the GI50 (UACC-62) was 2.43 µM (inactive). The GI50 (A498) was 7.55 µM (inactive), the GI50 (SN12C) was 4.48 µM (inactive) and the GI50 (Hs-578T) was > 37.8 µM (inactive). For the same molecule, the GI50 (MOLT-4) was 2.29 µM (inactive), the GI50 (NCI-H460) was 2.65 µM (inactive) and the GI50 (LOX IMVI) was 2.24 µM (inactive). For the same molecule, the GI50 (T47D) was 5.96 µM (inactive), the GI50 (COLO 205) was 2.48 µM (inactive) and the GI50 (NCI-H226) was 1.06 µM (active). The GI50 (SF-295) was 3.62 µM (inactive), the GI50 (ACHN) was 1.23 µM (inactive) and the GI50 (MDA-N) was 14.1 µM (inactive). For the same molecule, the GI50 (NCI-H522) was 5.35 µM (inactive), the GI50 (HT-29) was 2.34 µM (inactive) and the GI50 (OVCAR-3) was 1.38 µM (inactive). For the same molecule, the GI50 (HCT-116) was 3.32 µM (inactive), the GI50 (OVCAR-4) was 3.66 µM (inactive) and the GI50 (SK-MEL-2) was 41.1 µM (inactive).
